Measurements from patent US4798898A, “Antitussive and mucus regulating 2-substituted thiazolidines” (Boehringer Biochemia Robin S.p.A., priority 1984, dated 1989).
Read-outs that look alike come from different tables or passages of the source.

Tests used:
[1] = system: pathological sputum of bronchitic rabbits; assay: Mucus regulating properties in bronchitic rabbits (sputum AUC as % compared to bronchitic controls); assay type: in vivo, male New Zealand white rabbits; settings: for Fucose (mg/ml), AUC as a 100% compared to bronchitic controls / Galactose (mg/ml), AUC as a 100% compared to bronchitic controls / Mucus production (ml/kg), AUC as a 100% compared to bronchitic controls / Phospholipids (mg/ml), AUC as a 100% compared to bronchitic controls / Protein (mg/ml), AUC as a 100% compared to bronchitic controls / Sialic acid (mg/ml), AUC as a 100% compared to bronchitic controls / Viscosity (cps), AUC as a 100% compared to bronchitic controls: Table 2, equimolecular amounts to S-carboxymethyl cysteine; for mucus regulating activity (in words): rabbit, in vivo; for mucus regulating effectiveness compared with carboxymethylcysteine: dosage level 0.01-0.08M vs 0.153M carboxymethylcysteine
Method: The animals are submitted to inhalation of a 5% H2 SO3 aqueous solution by aerosol (exposition of 3 hours a day for 3 alternate days), to induce a chronic bronchial inflammatory disease which causes a production of pathological sputum in the bronchial tree.
Aim of the experiments is to evaluate modifications of selective parameters such as dry weight of the sputum, viscosity, content in proteins, phospholipids, galactose, sialic acid and fucose, induced in this pathological sputum by pharmacological treatment with the compounds of the invention.
To this purpose, the sputum produced in the bronchial tree is collected daily, through a "T" shaped glass cannula, inserted in the trachea, before and after oral twice a day (9.00 a.m. and 4.00 p.m.) treatment with one of the compounds of the invention.
The schedule treatment procedure is shown in the following Scheme 1: [drawing 21] where 0 indicates the day of implantation of the tracheal cannula; -7-5-3 indicate the days of H2 SO3 treatment (H); 1, 2, 3, 4 indicate the days of oral administration of the compounds of the invention (T) and the time of mucus collection (M).
The mucus collected in day 1 in the morning is considered as a blank; 7 indicates the day of the animal sacrifice after the mucous collection.
The sputum samples are stored in the freezer (-20° C.) until the investigation of biological and rheological parameters is carried out.
The samples are investigated for relative viscosity, measured at 37° C. with a Brookfield viscometer (model LT VD) equipped with a 1,565° cone-plate, and aliquoted for biochemical analysis of protein, phospholipids, galactose, sialic acid and fucose contents. Dry weight of the mucus is also determined. For each parameter, cumulative data are referred to a seven days period after the beginning of the treatment and they are extrapolated using the AUC method (area under curve) calculated by the trapazoidal rule. Finally the data are compared with data obtained from controls (vehicle treatment), non bronchitic rabbits (vehicle treatment) and positive controls bronchitic rabbits treated with 0.153M […].

[2] = system: cough induced by citric acid aerosol in guinea pigs; assay: Guinea pig cough test (citric acid aerosol, Charlier procedure); assay type: in vivo
Method: (§1) The techniques described by Charlier et al. (Arch. Int. Pharmacodyn. 134, 306, 1961) and by Stefko et al. (J. Pharm. Exp. Therap., 108, 217, 1953), adapted with minor modifications, are used to investigate the antitussive properties of the compounds of the invention. Codeine phosphate is used as positive reference compound.
According to the Charlier procedure guinea pigs are exposed to a citric acid aerosol (7.5%) and cough is recorded 60 minutes after the antitussive treatment by i.p. route. Male animals of 300-400 g pigs are placed in perspex box (20×30×30 cm) connected to an aerosol compressor; the animals are subjected to a citric acid saturated atmosphere, 60 minutes after the i.p. injection of a compound of the invention (0.1 and 0.3M solutions; 1 ml/kg).
The total number of cough strokes and the delay of the first cough are recorded during the first five minutes.
Five guinea pigs are used for each dose level and the results are compared with controls (vehicle treatment) and codeine phosphate 0.07M solution (standard treatment).
ED50 and the corresponding delay of first cough stroke are calculated.
The data obtained by i.p. administration are confirmed by oral administration.

[3] = system: cough induced by electric stimulation in dogs; assay: Dog cough test (cough induced by electric stimulation, Stefko procedure); assay type: in vivo, conscious mongrel dogs
Method: as §1
In the Stefko procedure, conscious mongrel dogs (15±3 kg body weight) are used; the compounds of the invention are tested for their ability to inhibit cough induced by electric stimulation.
Under general anesthesia, two insulated nichrome wires (0.4 mm diameter) are surgically implanted into the submucosa of the trachea.
About two days later, the dogs are placed in a sling and the exteriorized electrodes are connected to an electric stimulating device (such as Grass S 48 Mod.).
The stimulation parameters such as: delay 0.01 msec, duration 1 msec, frequency 30 Hz, are used.
An electrical stimulus of 1 sec is applied 10 times at 5 sec intervals in order to determine the minimum voltage necessary for eliciting reproducible cough responses. Then, tussive responses to the electrical stimuli are registered at 15, 30, 60, 90, 120, 150, 180, 240, 300 and 360 minutes after oral administration of the compounds of the invention.
The tussive responses are scored as follows: 1: no response; 2: sigh or exaggerated expiration; 3: marked cough; 4: one marked cough and one exaggerated expiration: 5: two marked coughs.
Six dogs are employed for each determination and the mean activity is calculated.
The inhibition percent of the cough response and the duration of activity are compared with codeine.

[4] = guinea pig cough test, i.p., 60 minutes after treatment
[5] = Cavia porcellus, ip, 1 h, guinea pig cough test, i.p., 60 minutes after treatment, read-out: ED50
[6] = Table 1, 0.153 M, oral, AUC over seven days

## 3-acetylthioacetyl-2-[2'-(o-acetylthioacetoxyphenyl)ethyl]thiazolidine
[1]; oral
  Fucose (mg/ml), AUC as a 100% compared to bronchitic controls: 128%
  Galactose (mg/ml), AUC as a 100% compared to bronchitic controls: 67%
  Mucus production (ml/kg), AUC as a 100% compared to bronchitic controls: 76.1%
  Phospholipids (mg/ml), AUC as a 100% compared to bronchitic controls: 47.2%
  Protein (mg/ml), AUC as a 100% compared to bronchitic controls: 48%
  Sialic acid (mg/ml), AUC as a 100% compared to bronchitic controls: 36.2%
  Viscosity (cps), AUC as a 100% compared to bronchitic controls: 70%
[1]
  mucus regulating activity (in words): particularly favourable increase of their mucus regulating activity
[2]; guinea pig cough test
  decrease of the antitussive potency in comparison with the reference compound 3: ~10 times
[2]; [4]
  ED50: 61 mg/kg

## COc1ccccc1OCC1NCCS1 (centres unmarked) [2-(o-methoxyphenoxy)-methyl-thiazolidine, 2-(o-methoxyphenoxymethyl)thiazolidine]
[1]; oral
  Fucose (mg/ml), AUC as a 100% compared to bronchitic controls: 76%
  Galactose (mg/ml), AUC as a 100% compared to bronchitic controls: 59%
  Mucus production (ml/kg), AUC as a 100% compared to bronchitic controls: 124%
  Phospholipids (mg/ml), AUC as a 100% compared to bronchitic controls: 106%
  Protein (mg/ml), AUC as a 100% compared to bronchitic controls: 92%
  Sialic acid (mg/ml), AUC as a 100% compared to bronchitic controls: 85%
  Viscosity (cps), AUC as a 100% compared to bronchitic controls: 116%

## COc1ccccc1OCC1SCCN1C(=O)CSC(=O)CCC1CCCCC1 (centres unmarked) [3-(3'-cyclohexyl)propionylthioacetyl-2-(o-methoxyphenoxy)methyl-thiazolidine]
[2]; [5]
  ED50: 0.5 to 4 mg/kg

## CCOCCOCC(=O)N1CCSC1COc1ccccc1OC (centres unmarked) [3-(3,6-dioxa-capriloyl)-2-(O-methoxyphenoxy)methyl-thiazolidine]
[1]
  mucus regulating effectiveness compared with carboxymethylcysteine: at least as effective as 0.153M of 5-carboxymethylcysteine

## COc1ccccc1OCC1SCCN1C(=O)CCn1ccnc1 (centres unmarked) [3-(3-imidazol-1-yl)-propionyl-2-(O-methoxyphenoxy)methylthiazolidine]
[1]
  mucus regulating effectiveness compared with carboxymethylcysteine: at least as effective as 0.153M of 5-carboxymethylcysteine

## C#CCOc1ccccc1OCC1SCCN1C(=O)CCn1ccnc1 (centres unmarked) [3-(3-imidazol-1-yl)-propionyl-2-(O-propargyloxyphenoxy)methyl-thiazolidine]
[1]
  mucus regulating effectiveness compared with carboxymethylcysteine: at least as effective as 0.153M of 5-carboxymethylcysteine

## CCOCCSCC(=O)N1CCSC1COc1ccccc1OC (centres unmarked) [3-(3-thia-6-oxa-capriloyl)-2-(O-methoxyphenoxy)methylthiazolidine]
[1]
  mucus regulating effectiveness compared with carboxymethylcysteine: at least as effective as 0.153M of 5-carboxymethylcysteine

## COc1ccccc1OCC1SCCN1C(=O)CN1CCN(C)CC1 (centres unmarked) [3-(4'-methyl-piperazin-1'-yl)acetyl-2-(o-methoxyphenoxy)methyl-thiazolidine]
[2]; [5]
  ED50: 0.5 to 4 mg/kg

## COc1ccccc1OCC1SCCN1C(=O)CSC(=O)CN1CCN(C)CC1 (centres unmarked) [3-(4'-methylpiperazine-1-yl)acetylthioacetyl-2-(o-methoxyphenoxy)methylthiazolidine]
[2]; [5]
  ED50: 0.5 to 4 mg/kg

## CC(=O)SCC(=O)N1CCSC1COc1ccccc1O (centres unmarked) [3-acetylthio-acetyl-2-[(o-hydroxyphenoxy)methyl]thiazolidine]
[1]; oral
  Fucose (mg/ml), AUC as a 100% compared to bronchitic controls: 90.8%
  Galactose (mg/ml), AUC as a 100% compared to bronchitic controls: 38.2%
  Mucus production (ml/kg), AUC as a 100% compared to bronchitic controls: 99.2%
  Phospholipids (mg/ml), AUC as a 100% compared to bronchitic controls: 47%
  Protein (mg/ml), AUC as a 100% compared to bronchitic controls: 62.0%
  Sialic acid (mg/ml), AUC as a 100% compared to bronchitic controls: 49.5%
  Viscosity (cps), AUC as a 100% compared to bronchitic controls: 31.9%
[1]
  mucus regulating activity (in words): particularly favourable increase of their mucus regulating activity
[2]; [5]
  ED50: 60 mg/kg
[2]; guinea pig cough test
  decrease of the antitussive potency in comparison with the reference compound 3: ~10 times

## CC(=O)SCC(=O)N1CCSC1COc1ccccc1C (centres unmarked) [3-acetylthioacetyl-2-(o-tolyloxymethyl)thiazolidine]
[1]; tested as mucus regulator
  fucose content in the mucus (in words): increases
  galactose content in the mucus (in words): poorly affecting
  protein content in the mucus (in words): increases
  sialic content in the mucus (in words): poorly affecting
  viscosity of the mucus (in words): increases
[2]
  antitussive properties (in words): devoid of any antitussive properties

## COc1ccccc1OCC1SCCN1C(=O)CSC(=O)c1ccccc1 (centres unmarked) [3-benzoylthioacetyl-2-(o-methoxyphenoxy)methyl-thiazolidine]
[2]; [5]
  ED50: 0.5 to 4 mg/kg

## CC(=O)SCC(=O)Oc1ccccc1OCC1SCCN1C(=O)CSC(C)=O (stereo not drawn) [3-α-acetylthioacetyl-2-[(o-α-acetylthioacetoxyphenoxy)methyl]thiazolidine]
[1]; oral
  Fucose (mg/ml), AUC as a 100% compared to bronchitic controls: 147.9%
  Galactose (mg/ml), AUC as a 100% compared to bronchitic controls: 72.9%
  Mucus production (ml/kg), AUC as a 100% compared to bronchitic controls: 74.0%
  Phospholipids (mg/ml), AUC as a 100% compared to bronchitic controls: 49.8%
  Protein (mg/ml), AUC as a 100% compared to bronchitic controls: 46.9%
  Sialic acid (mg/ml), AUC as a 100% compared to bronchitic controls: 31.3%
  Viscosity (cps), AUC as a 100% compared to bronchitic controls: 71.9%
[1]
  mucus regulating activity (in words): particularly favourable increase of their mucus regulating activity
[2]; [5]
  ED50: 162 mg/kg
[2]; guinea pig cough test
  decrease of the antitussive potency in comparison with the reference compound 3: ~10 times

## COc1ccccc1SCC1SCCN1C(=O)CSC(C)=O (stereo not drawn) [3α-acetylthioacetyl-2-(o-methoxyphenylthio)methyl-thiazolidine]
[2]; [5]
  ED50: 0.5 to 4 mg/kg

## CCOC(=O)[C@@H]1CSC(COc2ccccc2OC)N1 (some centres unmarked) [4-carbethoxy-2-(o-methoxyphenoxy)methyl-thiazolidine]
[3]; dog cough test, in words
  duration of action: short
[3]; dog, oral, dose not given
  % inhibition of cough stimulus: 26.7%
[2]; [4]
  ED50: inactive

## O=C(O)C1CSC(COc2ccccc2O)N1 (centres unmarked) [4-carboxy-2-[(o-hydroxyphenoxy)methyl]-thiazolidine]
[1]
  mucus regulating activity (in words): high mucus regulating activity
[2]
  antitussive properties (in words): reduced antitussive potency

## N[C@@H](CSCC(=O)O)C(=O)O [S--carboxymethyl cysteine, S-carboxymethyl cysteine, reference compound]
[1]; [6]
  Fucose mg/ml, AUC as a % compared to bronchitic controls: 56%
  Galactose mg/ml, AUC as a % compared to bronchitic controls: 64%
  Mucus production ml/kg, AUC as a % compared to bronchitic controls: 97%
  Phospholipids mg/ml, AUC as a % compared to bronchitic controls: 108%
  Protein mg/ml, AUC as a % compared to bronchitic controls: 105%
  Sialic acid mg/ml, AUC as a % compared to bronchitic controls: 60%
  Viscosity (cps), AUC as a % compared to bronchitic controls: 52%

## COc1ccc2c3c1O[C@H]1[C@@H](O)C=C[C@H]4[C@@H](C2)N(C)CC[C@@]341 [codeine phosphate, reference compound]
[3]; dog, 8 mg/kg
  duration of inhibition of the cough stimulus: 2 to 4 h
  inhibition of the cough stimulus: 52%
[2]; Cavia porcellus, ip, 1 h
  ED50: ~23 mg/kg
[2]; guinea pig cough test, control 100
  % delay of the first cough: 170%
